Laboratory results taken from patent US20250134890A1, “ANTIMALARIAL HEXAHYDROPYRIMIDINE ANALOGUES” (UCB BIOPHARMA SRL, priority 2022, published 2025).
Where a name gives a salt, the structure may show the parent alone. Read-outs that look alike come from different tables or passages of the source.

Test system: Plasmodium falciparum: 3D7 strain
Assay: P. falciparum 3D7 asexual blood stage assay (SYBR green readout)
Assay type: cell-based
Conditions: Plasmodium falciparum, P. falciparum 3D7 in human erythrocytes, 72 h incubation, SYBR green fluorescence
How it was run: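 3D7-infected erythrocytes (5% haematocrit, 0.5% parasitaemia) were exposed 72 h at 37 °C under 1% O2/3% CO2 to a 20-point titration (50,000-15 nM final, 0.5% DMSO). Parasite DNA was read by SYBR green fluorescence after overnight lysis. Percent inhibition was set against mefloquine and DMSO, and EC50 came from a biphasic two-site fit.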

Row | SMILES | IC50 (3D7, Erythrocyte, 72 h) | IC50 (Erythrocyte, read-out: IC50)
1 | C[C@H]1C[C@@H](N2C(=N)N[C@](C)(c3cccc(-c4cncc(Cl)c4)c3Cl)CC2=O)CCO1 [Example 1, (6S)-6-[2-Chloro-3-(5-chloro-pyridin-3-yl)phenyl]-2-imino-6-methyl-3-[(2S,4S)-2-methyl-tetrahydropyran-4-yl]hexahydro-pyrimidin-4-one hydrochloride] | 22 nM | 
2 | C[C@H]1C[C@@H](N2C(=N)N[C@](C)(c3cccc(-c4ccc(OC(F)(F)F)cc4Cl)c3Cl)CC2=O)CCO1 [Example 2, (6S)-6-{2-Chloro-3-[2-chloro-4-(trifluoromethoxy)phenyl]phenyl}-2-imino-6-methyl-3-[(2S,4S)-2-methyltetrahydropyran-4-yl]-hexahydropyrimidin-4-one hydrochloride] | 78 nM | 
3 | C[C@H]1C[C@@H](N2C(=N)N[C@](C)(c3cccc(-c4cccc(N=S(C)(C)=O)c4)c3Cl)CC2=O)CCO1 [Example 3, (6S)-6-[2-Chloro-3-(3-{[(dimethyl)-(oxo)-26-sulfanylidene]amino}-phenyl)phenyl]-2-imino-6-methyl-3-[(2S,4S)-2-methyltetrahydro-pyran-4-yl]hexahydropyrimidin-4-one hydrochloride] |  | 90 nM
4 | C[C@H]1C[C@@H](N2C(=N)N[C@](C)(c3cccc(-c4cccc(S(C)(=O)=O)c4)c3Cl)CC2=O)CCO1 [Example 4, (6S)-6-[2-Chloro-3-(3-methyl-sulfonylphenyl)phenyl]-2-imino-6-methyl-3-[(2S,4S)-2-methyl-tetrahydropyran-4-yl]hexahydro-pyrimidin-4-one hydrochloride] | 17 nM | 
5 | C[C@H]1C[C@@H](N2C(=N)N[C@](C)(c3cccc(-c4cccc(P(C)(C)=O)c4)c3Cl)CC2=O)CCO1 [Example 5, (6S)-6-[2-Chloro-3-(3-dimethyl-phosphorylphenyl)phenyl]-2-imino-6-methyl-3-[(2S,4S)-2-methyl-tetrahydropyran-4-yl]hexahydro-pyrimidin-4-one hydrochloride] | 101 nM | 
6 | C[C@H]1C[C@@H](N2C(=N)N[C@](C)(c3cccc(-c4ccc5ncn(CC(F)(F)F)c5c4)c3Cl)CC2=O)CCO1 [Example 6, (6S)-6-{2-Chloro-3-[3-(2,2,2-trifluoroethyl)benzimidazol-5-yl]-phenyl}-2-imino-6-methyl-3-[(2S,4S)-2-methyltetrahydropyran-4-yl]hexahydropyrimidin-4-one hydrochloride] | 26 nM | 
7 | C[C@H]1C[C@@H](N2C(=N)N[C@](C)(c3cccc(-c4cccc(NS(C)(=O)=O)c4)c3Cl)CC2=O)CCC1(F)F [Example 13, N-[3-(2-Chloro-3-{(4S)-1-[(1S,3S)-4,4-difluoro-3-methylcyclohexyl]-2-imino-4-methyl-6-oxohexahydro-pyrimidin-4-yl}phenyl)phenyl]-methanesulfonamide trifluoroacetic acid salt] | 10 nM | 
8 | C[C@H]1C[C@@H](N2C(=N)N[C@](C)(c3cccc(-c4ccc(NS(C)(=O)=O)cc4)c3Cl)CC2=O)CCC1(F)F [Example 14, N-[4-(2-Chloro-3-{(4S)-1-[(1S,3S)-4,4-difluoro-3-methylcyclohexyl]-2-imino-4-methyl-6-oxohexahydro-pyrimidin-4-yl}phenyl)phenyl]-methanesulfonamide trifluoroacetic acid salt] | 97 nM | 
9 | C[C@H]1C[C@@H](N2C(=N)N[C@](C)(c3cccc(-c4ccc(Cl)cc4F)c3Cl)CC2=O)CCO1 [Example 15, (6S)-6-[2-Chloro-3-(4-chloro-2-fluorophenyl)phenyl]-2-imino-6-methyl-3-[(2S,4S)-2-methyl-tetrahydropyran-4-yl]hexahydro-pyrimidin-4-one trifluoroacetic acid salt] | 142 nM | 
10 | C[C@H]1C[C@@H](N2C(=N)N[C@](C)(c3cccc(-c4ccc(Cl)cc4Cl)c3Cl)CC2=O)CCO1 [Example 16, (6S)-6-[2-Chloro-3-(2,4-dichloro-phenyl)phenyl]-2-imino-6-methyl-3-[(2S,4S)-2-methyltetrahydro-pyran-4-yl]hexahydropyrimidin-4-one trifluoroacetic acid salt] | 66 nM | 
11 | C[C@H]1C[C@@H](N2C(=N)N[C@](C)(c3cccc(-c4cccc(Cl)c4)c3Cl)CC2=O)CCO1 [Example 17, (6S)-6-[2-Chloro-3-(3-chloro-phenyl)phenyl]-2-imino-6-methyl-3-[(2S,4S)-2-methyltetrahydro-pyran-4-yl]hexahydropyrimidin-4-one trifluoroacetic acid salt] | 92 nM | 
12 | C[C@H]1C[C@@H](N2C(=N)N[C@](C)(c3cccc(-c4ccc(N=S(C)(C)=O)cc4F)c3Cl)CC2=O)CCC1(F)F [Example 18, (6S)-6-[2-Chloro-3-(4-{[(dimethyl)-(oxo)-λ^6-sulfanylidene]amino}-2-fluorophenyl)phenyl]-3-[(1S,3S)-4,4-difluoro-3-methylcyclohexyl]-2-imino-6-methylhexahydro-pyrimidin-4-one hydrochloride] | 292 nM | 
13 | C[C@H]1C[C@@H](N2C(=N)N[C@](C)(c3cccc(-c4ccc(P(C)(C)=O)cc4F)c3Cl)CC2=O)CCC1(F)F [Example 19, (6S)-6-[2-Chloro-3-(4-dimethyl-phosphoryl-2-fluorophenyl)-phenyl]-3-[(1S,3S)-4,4-difluoro-3-methylcyclohexyl]-2-imino-6-methylhexahydropyrimidin-4-one hydrochloride] | 386 nM | 
14 | C[C@H]1C[C@@H](N2C(=N)N[C@](C)(c3cccc(-c4cccc(N=S(C)(C)=O)c4)c3Cl)CC2=O)CCC1(F)F [Example 20, (6S)-6-[2-Chloro-3-(3-{[(dimethyl)-(oxo)-λ^6-sulfanylidene]amino}-phenyl)phenyl]-3-[(1S,3S)-4,4-difluoro-3-methylcyclohexyl]-2-imino-6-methylhexahydro-pyrimidin-4-one hydrochloride] | 88 nM | 
15 | C[C@H]1C[C@@H](N2C(=N)N[C@](C)(c3cccc(-c4cccc(N5CCOCC5)c4)c3Cl)CC2=O)CCO1 [Example 29, (6S)-6-{2-Chloro-3-[3-(morpholin-4-yl)phenyl]phenyl}-2-imino-6-methyl-3-[(2S,4S)-2-methyl-tetrahydropyran-4-yl]hexahydro-pyrimidin-4-one trifluoroacetic acid salt] | 65 nM | 
16 | C[C@H]1C[C@@H](N2C(=N)N[C@](C)(c3cccc(-c4cc5cccnc5n4C)c3Cl)CC2=O)CCO1 [Example 30, (6S)-6-[2-Chloro-3-(1-methyl-pyrrolo[2,3-b]pyridin-2-yl)phenyl]-2-imino-6-methyl-3-[(2S,4S)-2-methyltetrahydropyran-4-yl]-hexahydropyrimidin-4-one trifluoroacetic acid salt] | 199 nM | 
17 | C[C@H]1C[C@@H](N2C(=N)N[C@](C)(c3cccc(-c4ccc(C5CC5)nc4)c3Cl)CC2=O)CCO1 [Example 31, (6S)-6-[2-Chloro-3-(6-cyclopropyl-pyridin-3-yl)phenyl]-2-imino-6-methyl-3-[(2S,4S)-2-methyl-tetrahydropyran-4-yl]hexahydro-pyrimidin-4-one trifluoroacetic acid salt] | 180 nM | 
18 | Cc1cc(-c2cccc([C@]3(C)CC(=O)N([C@H]4CCO[C@@H](C)C4)C(=N)N3)c2Cl)on1 [Example 32, (6S)-6-[2-Chloro-3-(3-methyl-isoxazol-5-yl)phenyl]-2-imino-6-methyl-3-[(2S,4S)-2-methyl-tetrahydropyran-4-yl]hexahydro-pyrimidin-4-one trifluoroacetic acid salt] | 50 nM | 
19 | C[C@H]1C[C@@H](N2C(=N)N[C@](C)(c3cccc(-c4ccnnc4)c3Cl)CC2=O)CCO1 [Example 33, (6S)-6-[2-Chloro-3-(pyridazin-4-yl)phenyl]-2-imino-6-methyl-3-[(2S,4S)-2-methyltetrahydropyran-4-yl]hexahydropyrimidin-4-one trifluoroacetic acid salt] | 186 nM | 
20 | C[C@H]1C[C@@H](N2C(=N)N[C@](C)(c3cccc(-c4ccn(C)c(=O)c4)c3Cl)CC2=O)CCO1 [Example 34, (6S)-6-[2-Chloro-3-(1-methyl-2-oxopyridin-4-yl)phenyl]-2-imino-6-methyl-3-[(2S,4S)-2-methyl-tetrahydropyran-4-yl]hexahydro-pyrimidin-4-one trifluoroacetic acid salt] | 286 nM | 
21 | C[C@H]1C[C@@H](N2C(=N)N[C@](C)(c3cccc(-c4cccc5ccccc45)c3Cl)CC2=O)CCO1 [Example 35, (6S)-6-[2-Chloro-3-(naphth-1-yl)-phenyl]-2-imino-6-methyl-3-[(2S,4S)-2-methyltetrahydropyran-4-yl]hexahydropyrimidin-4-one trifluoroacetic acid salt] | 355 nM | 
22 | CC(C)c1ccccc1-c1cccc([C@]2(C)CC(=O)N([C@H]3CCO[C@@H](C)C3)C(=N)N2)c1Cl [Example 36, (6S)-6-[2-Chloro-3-(2-isopropyl-phenyl)phenyl]-2-imino-6-methyl-3-[(2S,4S)-2-methyltetrahydro-pyran-4-yl]hexahydropyrimidin-4-one trifluoroacetic acid salt] | 95 nM | 
23 | C[C@H]1C[C@@H](N2C(=N)N[C@](C)(c3cccc(-c4ccccc4C(F)(F)F)c3Cl)CC2=O)CCO1 [Example 37, (6S)-6-{2-Chloro-3-[2-(trifluoro-methyl)phenyl]phenyl}-2-imino-6-methyl-3-[(2S,4S)-2-methyl-tetrahydropyran-4-yl]hexahydro-pyrimidin-4-one trifluoroacetic acid salt] | 67 nM | 
24 | C[C@H]1C[C@@H](N2C(=N)N[C@](C)(c3cccc(-c4ccc(F)c(F)c4)c3Cl)CC2=O)CCO1 [Example 38, (6S)-6-[2-Chloro-3-(3,4-difluoro-phenyl)phenyl]-2-imino-6-methyl-3-[(2S,4S)-2-methyltetrahydro-pyran-4-yl]hexahydropyrimidin-4-one trifluoroacetic acid salt] | 135 nM | 
